Experiments:
[1] = tested on: LNCaP; assay: Antiproliferative activity against human LNCaP cells assessed as reduction in cell viability incubated for 72 hrs by XTT assay
[2] = tested on: T47D; assay: Antiproliferative activity against human T47D cells assessed as reduction in cell viability incubated for 72 hrs by XTT assay
[3] = molecular target: T1, Transient receptor potential cation channel subfamily V member 6 (Homo sapiens, UniProt Q9H1D0); assay: Inhibition of TRPV6 (unknown origin) transfected in HEK293 cells assessed as reduction in TRPV6-induced Cd2+ influx
T1 sequence (Q9H1D0 whole entry): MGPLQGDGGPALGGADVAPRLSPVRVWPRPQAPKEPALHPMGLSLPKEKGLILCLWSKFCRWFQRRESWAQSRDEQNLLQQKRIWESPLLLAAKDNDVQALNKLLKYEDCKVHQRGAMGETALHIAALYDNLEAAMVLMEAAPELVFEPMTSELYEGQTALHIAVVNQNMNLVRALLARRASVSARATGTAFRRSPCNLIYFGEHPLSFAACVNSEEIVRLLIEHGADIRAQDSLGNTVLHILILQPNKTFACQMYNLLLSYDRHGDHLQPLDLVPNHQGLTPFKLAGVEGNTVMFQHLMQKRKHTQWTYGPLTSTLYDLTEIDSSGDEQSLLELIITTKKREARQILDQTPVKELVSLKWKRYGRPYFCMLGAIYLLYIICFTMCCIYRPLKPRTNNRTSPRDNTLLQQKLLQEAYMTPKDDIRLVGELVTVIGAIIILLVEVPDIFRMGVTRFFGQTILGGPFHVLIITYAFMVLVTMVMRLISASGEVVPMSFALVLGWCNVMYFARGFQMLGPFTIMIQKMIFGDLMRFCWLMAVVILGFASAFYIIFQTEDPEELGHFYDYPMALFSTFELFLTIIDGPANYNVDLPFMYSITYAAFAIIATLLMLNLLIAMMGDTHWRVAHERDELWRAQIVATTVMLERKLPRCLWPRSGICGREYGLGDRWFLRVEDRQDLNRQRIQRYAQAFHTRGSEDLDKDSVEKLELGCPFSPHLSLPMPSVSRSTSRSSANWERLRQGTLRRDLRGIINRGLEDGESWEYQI

[4] = molecular target: T1, Transient receptor potential cation channel subfamily V member 6; assay: Inhibition of TRPV6 (unknown origin)
[5] = molecular target: T1, Transient receptor potential cation channel subfamily V member 6; assay: Inhibition of TRPV6 (unknown origin) expressed in Sf9 cells

Compound	IC50 [1]	IC50 [2]	IC50 [3]	also measured
COc1ccc(CCN2CCC[C@@H]2COC(c2ccccc2)c2ccccc2)cc1	61 µM	198 µM	–	–
c1ccc(C2CCC(N3CCN(Cc4ccco4)CC3)CC2)cc1 (configuration not stated)	–	–	25 µM	–
Fc1ccc(CCNCc2ccccc2OCc2ccc(F)cc2)cc1	–	–	15 µM	–
c1ccc(COc2ccccc2CNC23CC4CC(CC(C4)C2)C3)cc1	–	–	21 µM	–
COc1ccc(CCN2CCC[C@@H]2COC(c2ccccc2)c2ccc(Cl)cc2)cc1 (some centres not stated)	50 µM	220 µM	–	–
COc1ccc(CCN2CCC[C@@H]2COCc2ccc(Cl)cc2)cc1	0.44 µM	38.8 µM	–	IC50 [4]: 0.44 µM
COc1cc(Br)ccc1CN1CCN(C2CCC(c3ccccc3)CC2)CC1 (configuration not stated)	–	–	26 µM	–
CN(C)c1ccc(CCN2CCC[C@@H]2COC(c2ccccc2)c2ccc(Cl)cc2)cc1 (some centres not stated)	0.31 µM	44.5 µM	–	–
c1ccc(Oc2cccc(CN3CCN(Cc4cccnc4)CC3)c2)cc1	–	–	17 µM	–
CCCc1cc(O)c2c(c1)OC(C)(C)[C@@H]1C=CC(C)=C[C@@H]21	–	–	–	IC50 [5]: 9.4 µM
CN(C)c1ccc(CCN2CCC[C@@H]2CO)cc1	1 µM	49.1 µM	–	–

Reference: ChEMBL document CHEMBL5500350, “Advances in TRPV6 inhibitors for tumors by targeted therapies: Macromolecular proteins, synthetic small molecule compounds, and natural compounds” (Eur J Med Chem, 2024)
